Laboratory results: patent publication US9512481B2, “Polymorphisms in the PDE3A gene” (The Regents of the University of Colorado, a body corporate, priority 2009, dated 2016)
Each block holds one molecule with its values, some of them ahead of it.

What was measured:
[1] = test system: Evi-1 transcription factor mRNA; assay: Evi-1 mRNA expression in explanted left ventricular samples from heart failure patients treated with enoximone; format: in vivo, human; details: explanted LV samples from HF patients treated with enoximone; compared to non-failing, no enoximone
PDE3A mRNA = PDE3A mRNA abundance in LVs explanted from end-stage HF patients, by PDE3A promoter Ins/Del genotype; format: in vivo, human
PDE3A promoter = assay: PDE3A Ins or Del promoter-luciferase constructs transfected into NRVMs; format: cell-based, rat; details: for promoter response: Del construct with deletion of the CREB binding site (CRE) at −1070, NRVMs; for promoter (transcriptional) activity: NRVMs

Compound: Nc1ncnc2c1ncn2[C@@H]1O[C@@H]2COP(=O)(O)O[C@H]2[C@H]1O [cAMP, cyclic AMP]
induction of Evi-1 (Evi-1): 16 fold

promoter response (PDE3A promoter): abolishes the promoter response
Compound: CSc1ccc(C(=O)c2[nH]c(=O)[nH]c2C)cc1 [enoximone]
mRNA expression of Evi-1 [1]: increased | PDE3A mRNA abundance (PDE3A mRNA; Del carriers (homozygous or heterozygous for PDE3A Del, n=9) treated with enoximone, compared to Del patients not receiving enoximone (n=19), p<0.001): 2.1±0.3 fold | PDE3A gene expression (PDE3A mRNA; patients homozygous for the Ins (Ins/Ins) treated with enoximone, p=0.7): 1.1±0.3 fold

promoter (transcriptional) activity (PDE3A promoter; Del PDE3A promoter-luciferase construct (lacks the 29 nucleotide sequence)): increased promoter activity | promoter (transcriptional) activity (PDE3A promoter; Ins PDE3A promoter-luciferase construct (29 nucleotide sequence present)): does not go up
Compound: CC(C)NCC(O)c1ccc(O)c(O)c1 (centres unmarked) [isoproterenol]

Compound: CCCC(=O)Nc1ncnc2c1ncn2[C@@H]1O[C@@H]2COP(=O)(O)O[C@H]2[C@H]1OC(=O)CCC [dbcAMP]
promoter response (PDE3A promoter): abolishes the promoter response
